Experiments:
Assay type in all cases: cell-based
Human GPR40 [1] = target: T1, Human GPR40 (Homo sapiens, UniProt O14842); experiment: Inositol phosphate turnover (IP1) assay in HEK cells stably expressing human GPR40; conditions: HEK cells stably expressing human GPR40, 3H-inositol labeling, 60 min compound incubation
Description: Human and mouse GPR40 stable cell-lines were generated in CHO cells stably expressing NFAT BLA (Beta-lactamase). A human GPR40 stable cell-line was generated in HEK cells stably expressing the aequorin expressing reporter. The expression plasmids were transfected using lipofectamine, LIFE TECHNOLOGIES (Carlsbad, Calif.), following manufacturer's instructions. Stable cell-lines were generated following drug selection.
The assay is performed in a 96-well format. HEK cells stably expressing human GPR40 are plated to be 60-80% confluent within 72 h. After 72 h, the plates are aspirated and the cells washed with inositol-free DMEM (ICN). The wash media is replaced with 150 μL of 3H-inositol labeling media (inositol-free media containing 0.4% human albumin or 0.4% mouse albumin, 1× pen/strep antibiotics, glutamine, 25 mM HEPES to which is added 3H-myo-inositol NEN #NET114A 1 mCi/mL, 25 Ci/mmol diluted 1:150 in loading media with a final specific radioactivity of 1 μCi/150 μL). Alternatively, the human and mouse albumin can be added after the overnight labeling step before the addition of LiCl.
The assay is typically run the next day after 18 h labeling. On the day of the assay, 5 μL of 300 mM LiCl is added to all wells and incubated at 37 degrees for 20 min. […] Beads are allowed to settle and the plates are counted in the Wallac MICROBETA instrument. […]

Human GPR40 [2] = target: T1, Human GPR40; experiment: FLIPR assay: agonist-induced calcium mobilization in GPR40/CHO NFAT BLA cells; set-up: expressed in transfected cells; host or cells: CHO cells stably expressing NFAT BLA (beta-lactamase)
Summary of the method: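 CHO NFAT BLA cells stably expressing GPR40 were loaded with 8 μM fluo-4 AM in HBSS/HEPES buffer (0.1% BSA, 2.5 mM probenecid, pH 7.4) for 100 minutes at room temperature. Compound was then added and calcium-driven fluorescence read on FLIPR. EC50 is the concentration giving 50% of maximal observed fluorescence.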

Human GPR40 [3] = target: T1, Human GPR40; experiment: Inositol phosphate turnover (IP1) assay in HEK cells stably expressing human GPR40; set-up: expressed in transfected cells; conditions: HEK cells stably expressing human GPR40, 3H-inositol labeling, 60 min compound incubation
Summary of the method: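 HEK cells labelled 18 h with 3H-myo-inositol in inositol-free medium with 0.4% human or mouse albumin, then LiCl 20 min at 37 °C and compound 60 min at 37 °C. Formic-acid lysates read by YSi SPA bead scintillation counting; EC50 from concentration-response.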

T1 sequence (O14842 whole entry): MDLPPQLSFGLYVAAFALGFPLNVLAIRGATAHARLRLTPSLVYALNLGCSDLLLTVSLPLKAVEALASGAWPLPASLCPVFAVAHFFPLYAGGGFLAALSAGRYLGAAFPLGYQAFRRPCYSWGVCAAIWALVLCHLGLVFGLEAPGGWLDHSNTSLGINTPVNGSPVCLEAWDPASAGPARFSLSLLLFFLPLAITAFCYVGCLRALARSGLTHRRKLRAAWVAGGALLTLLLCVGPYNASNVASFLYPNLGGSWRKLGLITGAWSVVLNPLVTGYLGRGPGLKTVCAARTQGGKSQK

Q: Which EC50 (Human GPR40 [1]) does the source give for `Cc1nc(N2CCN(S(C)(=O)=O)CC2)ccc1-c1cccc(COc2ccc3c(c2)C[C@H]2[C@H](C(=O)O)[C@@H]32)c1` [Example 48] here?
A: 38.5 nM

Q: And the EC50 (Human GPR40 [2])?
A: 76.7 nM

Q: `CS(=O)(=O)CCCOc1ncc(-c2ccc(F)c(COc3ccc4c(c3)C[C@H]3[C@H](C(=O)O)[C@@H]43)c2)c(C(F)(F)F)n1` [Example 33] was tested. Which EC50 (Human GPR40 [1]) did it give?
A: 6.5 nM

Q: And the EC50 (Human GPR40 [2])?
A: 30.7 nM

Q: What does the source list for `Cc1nc(OCCCCn2nccn2)ccc1-c1ccc(F)c(COc2ccc3c(c2)CC2C(C(=O)O)C32)c1` (stereo not drawn) [Example 29, 4-((5-(6-(4-(2H-1,2,3-triazol-2-yl)butoxy)-2-methyl-pyridin-3-yl)-2-fluorobenzyl)oxy)-1,1a,6,6a-tetrahydrocyclo-propa[a]indene-1-carboxylic acid]?
A: EC50 (Human GPR40 [3]): 26.5 nM; EC50 (Human GPR40 [2]): 16.1 nM

Q: Which results are given for `Cc1nc(O[C@@H]2CO[C@H]3[C@@H]2OC[C@@H]3O)ccc1-c1ccc(F)c(COc2ccc3c(c2)C[C@H]2[C@H](C(=O)O)[C@@H]32)c1` [Example 31, (1S,1aS,6aR)-4-((2-fluoro-5-(6-(((3R,3aR,6S,6aR)-6-hydroxyhexahydrofuro[3,2-b]furan-3-yl)oxy)-2-methylpyridin-3-yl)benzyl)oxy)-1,1a,6,6a-tetrahydrocyclopropa[a]indene-1-carboxylic acid]?
A: EC50 (Human GPR40 [3]): 14 nM; EC50 (Human GPR40 [2]): 30.9 nM

Q: For `Cc1nc(OCCCOCc2ccccc2)ccc1-c1ccc(F)c(COc2ccc3c(c2)C[C@H]2[C@H](C(=O)O)[C@@H]32)c1` [Example 34, (1S,1aS,6aR)-4-((5-(6-(3-(benzyloxy)propoxy)-2-methylpyridin-3-yl)-2-fluorobenzyl)oxy)-1,1a,6,6a-tetrahydrocyclo-propa[a]indene-1-carboxylic acid], which EC50 (Human GPR40 [3]) is on record?
A: 889 nM

Q: What about the EC50 (Human GPR40 [2]) of the same molecule?
A: 75.1 nM

Q: Which results are given for `Cc1nc(NCCCS(C)(=O)=O)ccc1-c1ccc(F)c(COc2ccc3c(c2)C[C@H]2[C@H](C(=O)O)[C@@H]32)c1` [Example 11, 4-{2-Fluoro-5-[6-(3-methanesulfonyl-propylamino)-2-methyl-pyridin-3-yl]-benzyloxy}-1,1a,6,6a-tetrahydro-cyclopropa[a]indene-1-carboxylic acid]?
A: EC50 (Human GPR40 [3]): 43.5 nM; EC50 (Human GPR40 [2]): 55.9 nM
